Patent publication US12187723B2 (BRISTOL-MYERS SQUIBB COMPANY, priority 2019, dated 2025)

What follows are molecules tested against T1, human TLR7 (Homo sapiens, UniProt Q9NYK1) (assay: TLR7 inhibition reporter assay (HEK-Blue SEAP)). Conditions: HEK-Blue cells overexpressing human TLR7, gardiquimod 7.5 μM, 22 hour incubation.
T1 construct: host or cells: HEK-Blue cells
T1 sequence (Q9NYK1 27-1049): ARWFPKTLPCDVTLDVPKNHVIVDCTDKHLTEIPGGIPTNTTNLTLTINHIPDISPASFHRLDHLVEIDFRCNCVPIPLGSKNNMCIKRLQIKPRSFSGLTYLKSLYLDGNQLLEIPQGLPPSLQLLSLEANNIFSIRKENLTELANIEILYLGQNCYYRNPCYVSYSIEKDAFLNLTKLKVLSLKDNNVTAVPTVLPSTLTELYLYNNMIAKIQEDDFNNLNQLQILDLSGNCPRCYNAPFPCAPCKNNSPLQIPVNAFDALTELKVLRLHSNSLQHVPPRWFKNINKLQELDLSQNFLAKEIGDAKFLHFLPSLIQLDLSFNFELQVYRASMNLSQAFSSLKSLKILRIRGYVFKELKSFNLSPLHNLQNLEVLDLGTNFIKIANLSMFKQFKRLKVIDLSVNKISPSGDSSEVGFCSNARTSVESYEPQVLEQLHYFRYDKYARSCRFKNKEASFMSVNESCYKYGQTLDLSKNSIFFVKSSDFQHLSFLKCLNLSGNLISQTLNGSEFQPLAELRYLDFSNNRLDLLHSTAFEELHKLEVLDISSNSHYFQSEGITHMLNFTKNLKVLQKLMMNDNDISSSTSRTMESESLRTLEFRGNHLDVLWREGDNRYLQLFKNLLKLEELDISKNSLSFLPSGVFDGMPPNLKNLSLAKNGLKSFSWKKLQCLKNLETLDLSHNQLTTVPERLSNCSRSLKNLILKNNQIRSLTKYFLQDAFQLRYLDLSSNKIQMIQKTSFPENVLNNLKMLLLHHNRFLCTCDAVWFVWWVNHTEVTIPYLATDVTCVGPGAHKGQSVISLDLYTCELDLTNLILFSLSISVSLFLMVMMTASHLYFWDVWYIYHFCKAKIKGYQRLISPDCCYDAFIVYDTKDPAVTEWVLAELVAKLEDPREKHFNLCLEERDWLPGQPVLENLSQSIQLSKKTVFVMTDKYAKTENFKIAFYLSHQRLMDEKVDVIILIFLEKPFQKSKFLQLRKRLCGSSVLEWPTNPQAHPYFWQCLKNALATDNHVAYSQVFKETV
Format: cell-based
Summary of the method: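 SEAP readout via HEK-Blue Detection medium after 22 h at 37 °C, 5% CO2 defines inhibition, normalized between agonist-plus-DMSO wells and a reference inhibitor. Compound dose range 0.05 nM–50 μM; TLR7 cells at 15,000/well (gardiquimod), TLR8 at 20,000/well (R848).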

SMILES | IC50 [nM]
COc1cc(-c2ccc3c(c2)[nH]c(=O)n3C2CCN(C3CCC3)CC2)cn2ncnc12 [Example 83, 1-(1-cyclobutylpiperidin-4-yl)-5-(8-methoxy-[1,2,4]triazolo[1,5-a]pyridin-6-yl)-1,3-dihydro-2H-benzo[d]imidazol-2-one] | 2480
Cc1cc2c(cc1-c1cc(C)c3ncnn3c1)[nH]c(=O)n2[C@@H]1CCCN(CCCC(F)(F)F)C1 [Example 39, (R)-6-methyl-5-(8-methyl-[1,2,4]triazolo[1,5-a]pyridin-6-yl)-1-(1-(4,4,4-trifluorobutyl)piperidin-3-yl)-1,3-dihydro-2H-benzo[d]imidazol-2-one] | 139
COc1cc(-c2cc3[nH]c(=O)n([C@H]4CC[C@@H](NC5COC5)CC4)c3cc2C)cn2ncnc12 [Example 59, 5-(8-methoxy-[1,2,4]triazolo[1,5-a]pyridin-6-yl)-6-methyl-1-((1s,4s)-4-(oxetan-3-ylamino)cyclohexyl)-1,3-dihydro-2H-benzo[d]imidazol-2-one] | 67.1
Cc1cc2c(cc1-c1cc(C)c3ncnn3c1)[nH]c(=O)n2[C@@H]1CCCN(CC(C)C)C1 [Example 40, (R)-1-(1-isobutylpiperidin-3-yl)-6-methyl-5-(8-methyl-[1,2,4]triazolo[1,5-a]pyridin-6-yl)-1,3-dihydro-2H-benzo[d]imidazol-2-one] | 14.8
Cc1cc2c(cc1-c1cc(C)c3ncnn3c1)[nH]c(=O)n2[C@@H]1CCCN(CC2CC2)C1 [Example 37, (R)-1-(1-(cyclopropylmethyl)piperidin-3-yl)-6-methyl-5-(8-methyl-[1,2,4]triazolo[1,5-a]pyridin-6-yl)-1,3-dihydro-2H-benzo[d]imidazol-2-one] | 30.9
COc1cc(-c2ccc3c(c2)[nH]c(=O)n3C2CCN(CC3CC3)CC2)cn2ncnc12 [Example 79, 1-(1-(cyclopropylmethyl)piperidin-4-yl)-5-(8-methoxy-[1,2,4]triazolo[1,5-a]pyridin-6-yl)-1,3-dihydro-2H-benzo[d]imidazol-2-one] | > 3130
Cc1cc2c(cc1-c1cc(C)c3ncnn3c1)[nH]c(=O)n2[C@@H]1CCCN(CC2CCOC2)C1 (stereo partly drawn) [Example 43, 6-methyl-5-(8-methyl-[1,2,4]triazolo[1,5-a]pyridin-6-yl)-1-((3R)-1-((tetrahydrofuran-3-yl)methyl)piperidin-3-yl)-1,3-dihydro-2H-benzo[d]imidazol-2-one] | 88.5

Now from value to molecule:

IC50 [nM] | SMILES
22.5 | COc1cc(-c2cc3[nH]c(=O)n([C@@H]4CCCN(CC(C)(C)C)C4)c3cc2C)cn2ncnc12 [Example 71, (R)-5-(8-methoxy-[1,2,4]triazolo[1,5-a]pyridin-6-yl)-6-methyl-1-(1-neopentylpiperidin-3-yl)-1,3-dihydro-2H-benzo[d]imidazol-2-one]
27.6 | COc1cc(-c2cc3[nH]c(=O)n([C@H]4CC[C@@H](NCC5CC5)CC4)c3cc2C)cn2ncnc12 [Example 60, 1-((1s,4s)-4-((cyclopropylmethyl)amino)cyclohexyl)-5-(8-methoxy-[1,2,4]triazolo[1,5-a]pyridin-6-yl)-6-methyl-1,3-dihydro-2H-benzo[d]imidazol-2-one]
1480 | CCCN1CCC(n2c(=O)[nH]c3cc(-c4cc(OC)c5ncnn5c4)ccc32)CC1 [Example 76, 5-(8-methoxy-[1,2,4]triazolo[1,5-a]pyridin-6-yl)-1-(1-propylpiperidin-4-yl)-1,3-dihydro-2H-benzo[d]imidazol-2-one]
1530 | COc1cc(-c2ccc3c(c2)[nH]c(=O)n3C2CCN(C(C)C)CC2)cn2ncnc12 [Example 77, 1-(1-isopropylpiperidin-4-yl)-5-(8-methoxy-[1,2,4]triazolo[1,5-a]pyridin-6-yl)-1,3-dihydro-2H-benzo[d]imidazol-2-one]
497 | CNC(=O)CN1CCC(n2c(=O)[nH]c3cc(-c4cc(OC)c5ncnn5c4)c(C)cc32)CC1 [Example 87, 2-(4-(5-(8-methoxy-[1,2,4]triazolo[1,5-a]pyridin-6-yl)-6-methyl-2-oxo-2,3-dihydro-1H-benzo[d]imidazol-1-yl)piperidin-1-yl)-N-methylacetamide]
